GI50 and TGI data for twelve compounds are collected here from PubChem BioAssay (NCI).

Among the test systems are UACC-257 melanoma; UACC-62 melanoma; SNB-19 CNS; LOX IMVI melanoma; SK-MEL-28 melanoma; SF-295 CNS; NCI-H522 lung; K-562 leukemia; COLO 205 colon; MALME-3M melanoma.
Common to all, as to assay: DTP human tumour cell line panel, 48 h

For orientation: GI50 means the concentration that inhibits growth by half. As usually defined, the TGI is the concentration at which net growth stops.

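Method: 48-hour compound exposure of cells in 96-well plates, five concentrations, linear interpolation of endpoints. At the GI50, growth is halved. TGI: total growth inhibition.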

`Nc1ccc(-c2nc3ccccc3[nH]2)c(O)c1`: the GI50 is 18.6 µM in the assay with UACC-257 melanoma; 25.2 µM in the assay with UACC-62 melanoma; 66.8 µM in the assay with SNB-19 CNS; 40.8 µM in the assay with LOX IMVI melanoma; 53.9 µM in the assay on SK-MEL-28 melanoma; 26.5 µM in the assay with SF-295 CNS. For the same compound, the GI50 was over 100 µM with NCI-H522 lung, 31.5 µM in the assay on K-562 leukemia and 35 µM in the assay with COLO 205 colon. Further, the total growth inhibition concentration (TGI) with UACC-257 melanoma is 49.2 µM; in the assay with UACC-62 melanoma it was 95.5 µM; in the assay on SNB-19 CNS it was over 100 µM; in the assay on LOX IMVI melanoma, over 100 µM; in the assay on SK-MEL-28 melanoma, over 100 µM; with SF-295 CNS, 63.4 µM. Moreover, the TGI with NCI-H522 lung, in the assay with K-562 leukemia and in the assay on COLO 205 colon was over 100 µM each time.
With `COc1ccc(S(=O)(=O)N/N=C/CN2C(=O)c3ccccc3C2=O)cc1OC`, the TGI in the assay with UACC-257 melanoma, in the assay on UACC-62 melanoma, in the assay with SNB-19 CNS, in the assay with LOX IMVI melanoma, in the assay on SF-295 CNS and with NCI-H522 lung was over 100 µM throughout. The TGI with K-562 leukemia, in the assay with COLO 205 colon and in the assay with MALME-3M melanoma was over 100 µM throughout.
With `CC/C=C\C/C=C\C[C@H](O)C/C=C1/C(=O)C=C[C@H]1C/C=C\CCC(=O)OC`, the GI50 was 1.79 µM in the assay on UACC-62 melanoma; 7.76 µM in the assay on SNB-19 CNS; 1.36 µM in the assay on LOX IMVI melanoma; 2.85 µM in the assay on SK-MEL-28 melanoma; over 8.25 µM in the assay on SF-295 CNS; 1.39 µM in the assay with NCI-H522 lung. In addition, the GI50 was 2.26 µM in the assay on K-562 leukemia, 3.87 µM in the assay with COLO 205 colon and 2.2 µM in the assay on MALME-3M melanoma. Also, the TGI in the assay on UACC-62 melanoma is 7.16 µM; with SNB-19 CNS, over 8.25 µM; in the assay on LOX IMVI melanoma, 2.85 µM; with SK-MEL-28 melanoma, over 8.25 µM; in the assay on SF-295 CNS, over 8.25 µM; in the assay on NCI-H522 lung, 3.42 µM. Moreover, the TGI in the assay on K-562 leukemia, in the assay with COLO 205 colon and in the assay on MALME-3M melanoma was over 8.25 µM each time.
As to `Cn1ccnc1C(c1nccn1C)C(C)(C)[N+](=O)[O-]`, the TGI is over 100 µM in the assay on UACC-257 melanoma; 56.6 µM with UACC-62 melanoma; over 100 µM in the assay with LOX IMVI melanoma; over 100 µM in the assay on SK-MEL-28 melanoma; over 100 µM with SF-295 CNS; over 100 µM in the assay on NCI-H522 lung. The TGI with K-562 leukemia and with COLO 205 colon was over 100 µM throughout.
As for `C=CCC12CCC(=O)C=C1CCC1(C2)OCCO1` (centres undefined), the TGI with UACC-257 melanoma, in the assay on UACC-62 melanoma, with SNB-19 CNS, with SK-MEL-28 melanoma, in the assay with NCI-H522 lung and with K-562 leukemia was over 100 µM throughout. Also, the TGI in the assay with COLO 205 colon and with MALME-3M melanoma was over 100 µM in each case.
With `Nc1ccc(N=Nc2ccccc2)c(N)n1`, the GI50 in the assay on UACC-257 melanoma was 38.6 µM; in the assay on UACC-62 melanoma it was 32.6 µM; in the assay on SNB-19 CNS, 40.7 µM; with LOX IMVI melanoma it was 29 µM; in the assay with SF-295 CNS, 17 µM; in the assay with NCI-H522 lung it was 22.9 µM. For the same compound, the GI50 with K-562 leukemia is 42.7 µM; with COLO 205 colon, 26.1 µM; with MALME-3M melanoma it was 48.5 µM. Moreover, the TGI in the assay on UACC-257 melanoma was over 100 µM; in the assay on UACC-62 melanoma it was over 100 µM; with SNB-19 CNS, over 100 µM; with LOX IMVI melanoma it was over 100 µM; in the assay on SF-295 CNS it was 50.9 µM; in the assay on NCI-H522 lung it was 86.2 µM. Moreover, the TGI is over 100 µM in the assay with K-562 leukemia, 72.8 µM in the assay on COLO 205 colon and over 100 µM with MALME-3M melanoma.
On to `NC(=O)C(Br)CBr` (centres undefined), for which the GI50 in the assay on UACC-257 melanoma was 1.64 µM; with UACC-62 melanoma, 2.14 µM; with SNB-19 CNS, 15.5 µM; in the assay with LOX IMVI melanoma, 1.98 µM; in the assay on SK-MEL-28 melanoma, 1.69 µM; in the assay on SF-295 CNS, 14.7 µM. Besides, the values for the GI50 in the assay on K-562 leukemia, in the assay on COLO 205 colon and in the assay with MALME-3M melanoma were 1.38 µM, 1.03 µM and 1.91 µM, respectively. The TGI worked out at 3.27 µM with UACC-257 melanoma; 6.07 µM in the assay on UACC-62 melanoma; 29.6 µM with SNB-19 CNS; 5.93 µM in the assay with LOX IMVI melanoma; 3.29 µM in the assay with SK-MEL-28 melanoma; 35.2 µM in the assay on SF-295 CNS. Further, the total growth inhibition concentration (TGI) with K-562 leukemia came out at 5.29 µM; with COLO 205 colon it was 2.56 µM; in the assay with MALME-3M melanoma it was 4.53 µM.
In the case of `CNS(=O)(=O)NN(C)S(=O)(=O)c1ccc(Cl)cc1`, the TGI with UACC-257 melanoma, with UACC-62 melanoma, in the assay on SNB-19 CNS, in the assay with LOX IMVI melanoma, with SF-295 CNS and in the assay on NCI-H522 lung was over 100 µM each time. The TGI in the assay with K-562 leukemia, in the assay on COLO 205 colon and in the assay on MALME-3M melanoma was over 100 µM each time.
On to `CCN(CC)c1ccc(N=C2C=CC(=O)c3ncccc32)c(C)c1`, for which the total growth inhibition concentration (TGI) is 15 µM in the assay with UACC-257 melanoma; 16.8 µM with UACC-62 melanoma; 29.8 µM in the assay on SNB-19 CNS; 4.39 µM in the assay on LOX IMVI melanoma; 24.5 µM in the assay on SK-MEL-28 melanoma; 22.9 µM in the assay with SF-295 CNS. In addition, the TGI with K-562 leukemia amounted to 5.95 µM; in the assay with COLO 205 colon it was 5.04 µM; in the assay on MALME-3M melanoma it was 12.5 µM.
As for `Cn1cc(NC(=O)c2cc(NC(=O)Nc3cc(C(=O)Nc4cc(C(=O)NCCC(=N)N)n(C)c4)n(C)c3)cn2C)cc1C(=O)NCCC(=N)N`, the TGI was 45.5 µM with UACC-257 melanoma; 53.2 µM with UACC-62 melanoma; over 100 µM in the assay on SNB-19 CNS; 70.1 µM with LOX IMVI melanoma; over 100 µM in the assay on SK-MEL-28 melanoma; 86 µM with SF-295 CNS. Also, the TGI in the assay with K-562 leukemia is over 100 µM; in the assay on COLO 205 colon it was 92.9 µM; in the assay on MALME-3M melanoma, over 100 µM.
`CC1CCC2(NC1)OC1CC3[C@@H]4CC=C5C=CCC[C@]5(C)C4CC[C@]3(C)C1C2C` (some centres undefined): the concentration for total growth inhibition (TGI) with UACC-257 melanoma is 49 µM; in the assay with UACC-62 melanoma, 42.5 µM; in the assay on SNB-19 CNS it was over 100 µM; in the assay with LOX IMVI melanoma, 33.6 µM; in the assay on SK-MEL-28 melanoma it was 30 µM; in the assay on SF-295 CNS it was 52.8 µM. The TGI was 46.6 µM in the assay with K-562 leukemia, 34.6 µM in the assay on COLO 205 colon and 35.3 µM in the assay on MALME-3M melanoma.
Regarding `c1cc(C2CCCCC2)ccc1OCCCCCCN1CCNCC1`, the GI50 is 1.89 µM with UACC-257 melanoma; 1.86 µM in the assay with UACC-62 melanoma; 2.96 µM in the assay on SK-MEL-28 melanoma; 1.92 µM in the assay on SF-295 CNS; 1.7 µM with NCI-H522 lung; 1.46 µM in the assay on K-562 leukemia. For the same compound, the GI50 with COLO 205 colon was 1.96 µM; in the assay on MALME-3M melanoma, 1.99 µM. For the same compound, the TGI stood at 3.68 µM in the assay on UACC-257 melanoma; 3.81 µM in the assay with UACC-62 melanoma; 8.76 µM with SK-MEL-28 melanoma; 3.77 µM in the assay on SF-295 CNS; 3.38 µM with NCI-H522 lung; 3.11 µM with K-562 leukemia. Besides, the TGI in the assay with COLO 205 colon is 3.55 µM; with MALME-3M melanoma it was 3.86 µM.
